In patent publication US8435744B2 (priority 2005, dated 2013):

Biological target: PrP^C from uninfected N2a58 cells (Mus musculus, UniProt P04925)
Assay type: cell-based, murine
Details: normal N2a58 cells, 3 days, 5 to 20 μM, before and after PK, FIG. 5

PrP^C from uninfected N2a58 cells, sequence (P04925 23-230 limits assumed): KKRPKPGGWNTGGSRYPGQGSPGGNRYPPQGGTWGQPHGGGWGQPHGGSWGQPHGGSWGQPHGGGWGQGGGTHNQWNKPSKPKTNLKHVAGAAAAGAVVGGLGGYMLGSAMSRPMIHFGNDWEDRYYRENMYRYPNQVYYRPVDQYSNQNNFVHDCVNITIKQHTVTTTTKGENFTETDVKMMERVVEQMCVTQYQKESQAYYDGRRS

Compound: CSc1nccc(-c2ccc(Br)s2)n1 [compound A, 4-(5-bromo-2-thienyl)-2-(methylthio)pyrimidine]
- oligomeric forms of normal PrP or bands resistant to proteinase K digestion: does not make it possible to demonstrate oligomeric forms of the normal prion protein, PrP nor the appearance of bands resistant to proteinase K digestion
